Experimental data taken from patent US20220088127A1, “TARGETING THE BAG FAMILY FOR THE TREATMENT OF NEURODEGENERATIVE DISEASE” (Temple University - of the Commonwealth System of Higher …, priority 2019, published 2022).
Peptide text beside a SMILES is read from it. * marks the point of attachment. Cbz = O=C(OCc1ccccc1)*

Test system: BAG3
Assay: BAG3 protein level by Western blot
Format: cell-based, rat
Procedure: Dissociated cell cultures of hippocampal and cortical neurons were prepared using dissected E18 prenatal rat embryonic brains. After digestion in 0.25% trypsin solution, neurons were plated on tissue culture plates and slides pre-coated with poly-D-lysine (Sigma, St. Louis, Mo.) and laminin (Invitrogen 23017, USA). Cells were maintained 14 days prior to treatments. Neurons were transduced with Ad-Null (Vector Biolabs, Malvern, Pa.), Ad-Tat (made in-house), Ad-siBAG3 (Vector Biolabs, Malvern, Pa.) and Ad-BAG3 (Vector Biolabs, Malvern, Pa.) with MOI 1 to 4 or recombinant Tat protein (50 ng/ml, full length, 101 amino acids, Immunodiagnostics, MA). Tat bioactivity was verified by the LTR-luciferase assay. MG132 (5 μM) and Bafilomycin A 1 (50 nM, Sigma) were applied for 4 h prior to lysis to block proteasome and lysosomal autophagy, respectively.
Neuronal and mouse brain tissue lysates were prepared using RIPA lysis buffer (whole cell extract), Tris-Triton (soluble fraction) or 2% SDS in PBS (insoluble fraction), all containing protease inhibitor cocktail (Sigma-Aldrich, St. Louis, Mo.). Protein concentration was measured using Bio-Rad protein assay reagent (Bio-Rad, Hercules, Calif.). SDS-polyacrylamide gels, 10-12%, and nitrocellulose membranes (LI-COR, Inc., Lincoln, Nebr.) were used for electrophoretic protein separation and transfer, respectively. […]

| SMILES | BAG3 levels in Tat-expressing neurons under lysosomal inhibition (Bafilomycin A1) | BAG3 levels in Tat-expressing neurons under proteasome inhibition (MG132 for 4 h on day 3 post-transduction) |
| --- | --- | --- |
| CO/C1=C\C(C)=C\[C@@H](C)[C@@H](O)[C@@H](C)C/C(C)=C/C=C/[C@H](OC)[C@@H]([C@@H](C)[C@@H](O)[C@H](C)[C@@]2(O)C[C@@H](O)[C@H](C)[C@@H](C(C)C)O2)OC1=O [Baf A1, Bafilomycin A1] | no significant changes |  |
| CC(C)C[C@@H](C=O)NC(=O)[C@H](CC(C)C)NC(=O)[C@H](CC(C)C)NC(=O)OCc1ccccc1 [MG132] (Cbz-Leu-Leu-Leu-aldehyde) |  | not altered |
